# From patent publication US11613531B2, “Inhibitors of RHO associated coiled-coil containing protein kinase” (Kadmon Corporation, LLC, priority 2017, dated 2023)
# Several values for one entry are separate records, joined by “and”; a condition that tells them apart may be missing. Equal entries are not always repeated. Where two headings read alike, the source gives them in different places.
# How the values were obtained:
# [1] = target: Recombinant ROCK2 (amino acids 1-552) (Homo sapiens (Human), UniProt O75116); experiment: Z′-Lyte kinase assay, ROCK2; type: biochemical; conditions: for inhibition at 1 µM: 1 μM compound, read-out: ROCK2 % inh. @ [conc]
# Protocol: Determination of Compound's ROCK Inhibitory Activity In Vitro (Z'Lyte Assay).
# Recombinant ROCK1 (amino acids 1-535) and ROCK2 (amino acids 1-552) proteins were purchased from ThermoFisher Scientific. Compound's activities were measured by Z′-lyte kinase kit (ThermoFisher Scientific) and IC50 was calculated
# In vitro activities for the compounds were measured with Z′-lyte kinase kit (ThermoFisher Scientific). The percent inhibition rate was calculated by normalizing the kinase activity value obtained with 1 μM compound treatment against DMSO control value and then applied to the formula, [1-(compound/DMSO)]×100%. IC50s were calculated using the nonlinear regression curve fit function of the GraphPad Prism software with kinase activities data measured with 9 points 2-fold serial dilution of compounds treatment. In cell pMLC IC50s were calculated with data obtained from A7R5 cell experiments. A7R5 cells were treated with 9 points 2-fold serial dilution of compounds and ppMlc (T18/S19) levels were determined to calculate cellular IC50 values of the compounds using the nonlinear regression curve fit function of the GraphPad Prism software. NIH3T3 cells stably expressing ACTA2-promoter-driven-luciferase were applied to measure ROCK compounds functional IC50s in cells. Cells were plated in 96 well plates to confluence and treated with 9 points serial dilution of compounds in combination with TGFβ1 for 24 hr. Luciferase activities were measured and compound's IC50s were calculated using the nonlinear regression curve fit function of the GraphPad Prism software.
# [2] = tested on: ppMlc (T18/S19) levels in A7R5 cells; experiment: A7R5 in-cell ELISA (pMLC); type: cell-based, Rat; conditions: for inhibition at 1 µM / inhibition at 10 µM / IC50: Rattus norvegicus, A7R5, A7R5 cells; for inhibition at 1 µM: 1 μM compound; for inhibition at 1 µM / inhibition at 10 µM: read-out: pMLC % inh A7R5 @ [conc]; for inhibition at 10 µM / pMLC % inh A7R5 @ [conc]: 10 μM compound; for pMLC % inh A7R5 @ [conc]: A7R5 cells
# Procedure, shortened: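 Cellular IC50 came from a nonlinear regression fit of ppMlc (T18/S19) signal, read by colorimetric in-cell ELISA on fixed cells. Rat A7R5 aortic smooth muscle cells had been exposed for 90 min to compounds in 9-point 2-fold serial dilution, 24 h after seeding.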
# [3] = 9 points 2-fold serial dilution
# Chain of Recombinant ROCK2 (amino acids 1-552) (O75116 1-552): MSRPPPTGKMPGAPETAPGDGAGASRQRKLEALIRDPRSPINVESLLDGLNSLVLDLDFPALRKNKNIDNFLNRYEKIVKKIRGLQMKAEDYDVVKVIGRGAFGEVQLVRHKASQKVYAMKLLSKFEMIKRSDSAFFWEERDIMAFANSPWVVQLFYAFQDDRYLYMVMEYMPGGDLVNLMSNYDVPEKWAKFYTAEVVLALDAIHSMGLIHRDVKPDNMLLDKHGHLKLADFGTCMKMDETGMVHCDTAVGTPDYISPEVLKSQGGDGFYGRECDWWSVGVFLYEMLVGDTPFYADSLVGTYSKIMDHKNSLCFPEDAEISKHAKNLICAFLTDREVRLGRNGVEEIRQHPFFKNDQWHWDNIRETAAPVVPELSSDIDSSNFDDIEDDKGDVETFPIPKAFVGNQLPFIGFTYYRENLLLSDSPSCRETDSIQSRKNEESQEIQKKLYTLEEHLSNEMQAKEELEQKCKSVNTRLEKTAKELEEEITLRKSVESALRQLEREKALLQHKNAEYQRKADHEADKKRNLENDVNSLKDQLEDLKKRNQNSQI
inhibition at 1 µM [1],Compound,inhibition at 1 µM [2],inhibition at 10 µM [2],other results
88.2%,"Fc1cnc(N2CC3CNCC(C3)C2)nc1Nc1ccc2[nH]ncc2c1 [Example 167, N-(2-(3,7-diazabicyclo[3.3.1]nonan-3-yl)-5-fluoropyrimidin-4-yl)-1H-indazol-5-amine]",22.5%,,
0%,"Fc1cnc(N2CC3(CCNCC3)c3ccccc32)nc1Nc1ccc2[nH]ncc2c1 [Example 176, N-(5-fluoro-2-(spiro[indoline-3,4′-piperidin]-1-yl)pyrimidin-4-yl)-1H-indazol-5-amine]",14.5%,,
31.8%,"Cc1cc(Nc2ccc3[nH]ncc3c2)nc(N2CCNC(C(C)C)CC2)n1 (stereo not drawn) [Example 111, N-(2-(5-isopropyl-1,4-diazepan-1-yl)-6-methylpyrimidin-4-yl)-1H-indazol-5-amine]",,44%,
48.5%,"Cc1cnc(N2CCCNC(C)C2)nc1Nc1ccc2[nH]ncc2c1 (stereo not drawn) [Example 102, N-(5-methyl-2-(3-methyl-1,4-diazepan-1-yl)pyrimidin-4-yl)-1H-indazol-5-amine]",,43.5%,"IC50 [1, 3]: 1.09 µM"
33.1%,"COc1cnc(N2CCNC(C(C)C)CC2)nc1Nc1ccc2[nH]ncc2c1 (stereo not drawn) [Example 47, N-(2-(5-isopropyl-1,4-diazepan-1-yl)-5-methoxypyrimidin-4-yl)-1H-indazol-5-amine]",,45.6%,
74%,"Cc1cnc(N2CCCNCC2)nc1Nc1ccc(-c2cn[nH]c2)cc1 [Example 261, N-(4-(1H-pyrazol-4-yl)phenyl)-2-(1,4-diazepan-1-yl)-5-methylpyrimidin-4-amine]",,86%,IC50 ([2]; ppMlc (T18/S19)): 1880 nM
9.5%,"Fc1cnc(N2CC(C3CCCNC3)c3ccccc32)nc1Nc1ccc2[nH]ncc2c1 (stereo not drawn) [Example 177, N-(5-fluoro-2-(3-(piperidin-3-yl)indolin-1-yl)pyrimidin-4-yl)-1H-indazol-5-amine]",10.2%,,
,"Nc1ncc(-c2ccc(Nc3ccnc(N4CCNCC4)n3)cc2)s1 [Example 361, 5-(4-((2-(piperazin-1-yl)pyrimidin-4-yl)amino)phenyl)thiazol-2-amine]",,2.02%,IC50 [1]: > 10 µM
,"CN1CCc2nc(N3C4CCC3CNC4)nc(Nc3ccc(-c4cn[nH]c4)cc3)c2C1 [Example 303, N-(4-(1H-pyrazol-4-yl)phenyl)-2-(3,8-diazabicyclo[3.2.1]octan-8-yl)-6-methyl-5,6,7,8-tetrahydropyrido[4,3-d]pyrimidin-4-amine]",,,IC50 [1]: 0.257 µM; IC50 [2]: > 10000 nM
93.4%,"Cc1cc(Nc2ccc3[nH]ncc3c2)nc(N2CC3CNCC(C3)C2)n1 [Example 130, N-(2-(3,7-diazabicyclo[3.3.1]nonan-3-yl)-6-methylpyrimidin-4-yl)-1H-indazol-5-amine]",27.7%,,
43.2%,"CC1CN(c2ncc(F)c(Nc3ccc4[nH]ncc4c3)n2)CC(C)N1 (stereo not drawn) [Example 150, N-(2-(3,5-dimethylpiperazin-1-yl)-5-fluoropyrimidin-4-yl)-1H-indazol-5-amine]",,44.4%,IC50 ([2]; ppMlc (T18/S19)): 4970 nM
,"c1ccc(C2CCN(c3nccc(Nc4ccc(-c5cn[nH]c5)cc4)n3)C2)cc1 (stereo not drawn) [Example 270, N-(4-(1H-pyrazol-4-yl)phenyl)-2-(3-phenylpyrrolidin-1-yl)pyrimidin-4-amine]",,,IC50 [1]: 1.43 µM; pMLC % inh A7R5 @ [conc] [2]: −6.9% and −8.9%
71.8%,"CCC1CCN(c2ncc(F)c(Nc3ccc4[nH]ncc4c3)n2)CCN1 (stereo not drawn) [Example 146, N-(2-(5-ethyl-1,4-diazepan-1-yl)-5-fluoropyrimidin-4-yl)-1H-indazol-5-amine]",,50.2%,IC50 ([2]; ppMlc (T18/S19)): 2060 nM
,"Fc1cnc(N2CC3CNC3C2)nc1Nc1ccc2[nH]ncc2c1 (stereo not drawn) [Example 174, N-(2-(3,6-diazabicyclo[3.2.0]heptan-3-yl)-5-fluoropyrimidin-4-yl)-1H-indazol-5-amine]",26.3%,,IC50 [1]: 0.035 µM
98%,"c1cc(Nc2ccc3[nH]ncc3c2)nc(N2CCC3CNCC3CC2)n1 (stereo not drawn) [Example 85, N-(2-(octahydropyrrolo[3,4-d]azepin-6(1H)-yl)pyrimidin-4-yl)-1H-indazol-5-amine]",17.3%,,
83.3%,"COc1cnc(N2CCCNC(C)C2)nc1Nc1ccc2[nH]ncc2c1 (stereo not drawn) [Example 55, N-(5-methoxy-2-(3-methyl-1,4-diazepan-1-yl)pyrimidin-4-yl)-1H-indazol-5-amine]",,52.2%,IC50 ([2]; ppMlc (T18/S19)): 998 nM
71.2%,"Cc1cc(Nc2ccc(-c3cn[nH]c3)cc2)nc(N2CCCNCC2)n1 [Example 265, N-(4-(1H-pyrazol-4-yl)phenyl)-2-(1,4-diazepan-1-yl)-6-methylpyrimidin-4-amine]",,80%,IC50 ([2]; ppMlc (T18/S19)): 1370 nM
54%,"Cc1cnc(N2CCNCC2C)nc1Nc1ccc2[nH]ncc2c1 (stereo not drawn) [Example 97, N-(5-methyl-2-(2-methylpiperazin-1-yl)pyrimidin-4-yl)-1H-indazol-5-amine]",,52.5%,IC50 ([2]; ppMlc (T18/S19)): 2340 nM
74.1%,"Cc1cc(Nc2ccc3[nH]ncc3c2)nc(N2CCC3NCCC3C2)n1 (stereo not drawn) [Example 131, N-(6-methyl-2-(octahydro-5H-pyrrolo[3,2-c]pyridin-5-yl)pyrimidin-4-yl)-1H-indazol-5-amine]",12.7%,,
84.4%,"CC1CNCCN(c2ncc(Cl)c(Nc3ccc4[nH]ncc4c3)n2)C1 (stereo not drawn) [Example 193, N-(5-chloro-2-(6-methyl-1,4-diazepan-1-yl)pyrimidin-4-yl)-1H-indazol-5-amine]",32.5%,,"IC50 [1, 3]: 0.282 µM; IC50 ([2]; ppMlc (T18/S19)): 788 nM"
,"c1cc(Nc2ccc(-c3cncs3)cc2)nc(N2CCNCC2)n1 [Example 353, 2-(piperazin-1-yl)-N-(4-(thiazol-5-yl)phenyl)pyrimidin-4-amine]",,,IC50 [1]: > 10 µM; pMLC % inh A7R5 @ [conc] [2]: 25.55%
55.1%,"CCC1CN(c2ncc(F)c(Nc3ccc4[nH]ncc4c3)n2)CCCN1 (stereo not drawn) [Example 148, N-(2-(3-ethyl-1,4-diazepan-1-yl)-5-fluoropyrimidin-4-yl)-1H-indazol-5-amine]",,46%,
,"Cc1cc(Nc2ccc3[nH]ncc3c2)nc(N2CC3CNC3C2)n1 (stereo not drawn) [Example 134, N-(2-(3,6-diazabicyclo[3.2.0]heptan-3-yl)-6-methylpyrimidin-4-yl)-1H-indazol-5-amine]",29.9%,,IC50 [1]: 0.011 µM
50.6%,"CCC1CN(c2ncc(OC)c(Nc3ccc4[nH]ncc4c3)n2)CCN1 (stereo not drawn) [Example 49, N-(2-(3-ethylpiperazin-1-yl)-5-methoxypyrimidin-4-yl)-1H-indazol-5-amine]",,46.3%,
44.6%,"COc1cnc(N2CCCNC(C(C)C)C2)nc1Nc1ccc2[nH]ncc2c1 (stereo not drawn) [Example 32, N-(2-(3-isopropyl-1,4-diazepan-1-yl)-5-methoxypyrimidin-4-yl)-1H-indazol-5-amine]",,53.7%,IC50 ([2]; ppMlc (T18/S19)): 3950 nM
29.3%,"COc1cnc(N2CCNC(C(C)C)C2)nc1Nc1ccc2[nH]ncc2c1 (stereo not drawn) [Example 51, N-(2-(3-isopropylpiperazin-1-yl)-5-methoxypyrimidin-4-yl)-1H-indazol-5-amine]",,39.4%,
82.1%,"CC1CN(c2ncc(F)c(Nc3ccc4[nH]ncc4c3)n2)C(C)CN1 (stereo not drawn) [Example 155, N-(2-(2,5-dimethylpiperazin-1-yl)-5-fluoropyrimidin-4-yl)-1H-indazol-5-amine]",25%,,
9.1%,"Cc1cc(Nc2ccc3[nH]ncc3c2)nc(N2CC3(CCNCC3)c3ccccc32)n1 [Example 138, N-(6-methyl-2-(spiro[indoline-3,4′-piperidin]-1-yl)pyrimidin-4-yl)-1H-indazol-5-amine]",15.2%,,
,"c1cc(Nc2ccc(-c3cnco3)cc2)nc(N2CCNCC2)n1 [Example 358, N-(4-(oxazol-5-yl)phenyl)-2-(piperazin-1-yl)pyrimidin-4-amine]",,24.3%,IC50 [1]: > 10 µM
4.6%,"Cc1nc(N2CCNC(C(C)C)CC2)nc(Nc2ccc3[nH]ncc3c2)c1C (stereo not drawn) [Example 19, N-(2-(5-isopropyl-1,4-diazepan-1-yl)-5,6-dimethylpyrimidin-4-yl)-1H-indazol-5-amine]",,31.8%,

Compound,inhibition at 1 µM [1],inhibition at 1 µM [2],inhibition at 10 µM [2],other results
"Cc1cc(Nc2ccc3[nH]ncc3c2)nc(N2CC3CCC(C2)N3)n1 [Example 119, N-(2-(3,8-diazabicyclo[3.2.1]octan-3-yl)-6-methylpyrimidin-4-yl)-1H-indazol-5-amine]",90.1%,17.7%,,
